Reference: article PMC12234328, “A naphthalimide derivative exerts potent antiplatelet and antithrombotic activities without a bleeding tendency” (Frontiers in Pharmacology, 2025)

What was measured:
Type in all cases: in vivo
[1] = test system: tail bleeding (hemostasis); assay: Tail-bleeding assay; conditions: 0.3, 0.6 or 1.2 mg/kg, mice, n = 6
Protocol: For the tail-bleeding assay, the mice were anesthetized with an oxygen–air mixture containing 3% isoflurane at a gas flow rate of 1.5–2 L/min. A bolus dose of compound 6 (0.3 mg/kg, 0.6 mg/kg, or 1.2 mg/kg), DMSO (solvent control; 1.1 g/kg), or aspirin (20 mg/kg; positive control) was intraperitoneally administered for 30 min. A 3-mm incision was then made at the tail tip to induce bleeding. The bleeding tail stump was immediately immersed in saline, and the bleeding time was recorded. […] A formula for dose translation based on the […] was used to calculate the dose for use in the mice ([Reagan-Shaw et al., 2008]).
(§1) FIGURE 3 Effects of compound 6 on thrombosis and hemostasis in mice. Mice were treated with compound 6 (0.3, 0.6, or 1.2 mg/kg), DMSO (solvent control), or aspirin (20 mg/kg; positive control) via intravenous route for 10 min. (A) The microthrombus formation (arrows) in mesenteric venules. Scale bar = 30 μm. […] Each point on the plot indicates a mouse (n = 6). Data (A,B) are presented as means ± SEM (n = 6). *p < 0.05 and ***p < 0.001 compared with the DMSO group.

[2] = test system: thrombus formation in mesenteric venules; assay: Fluorescein sodium-mediated thrombus formation in mesenteric microvessels of mice; conditions: n = 6, mean ± SEM (DMSO 117.7 ± 12.4 s)
Protocol: Male ICR mice (weighing 20–25 g and aged 5–6 weeks) were purchased from BioLasco (Taipei, Taiwan). The animal use protocol for this project was approved by the Affidavit of Approval of Animal Use Protocol–Taipei Medical University (LAC-2020–0074). All animal experiments were conducted in accordance with the Guide for the Care and Use of Laboratory Animals, Eighth Edition (2011).
The mice were anesthetized with an oxygen–air mixture containing 3% isoflurane at a gas flow rate of 1.5–2 L/min. A bolus dose (bolus volume: 20 μL) of compound 6 (0.3 mg/kg, 0.6 mg/kg, or 1.2 mg/kg), DMSO (solvent control; 1.1 g/kg), or aspirin (20 mg/kg; positive control) was intravenously administered through the tail vein before the administering sodium fluorescein (15 mg/kg). The small intestinal segments were placed on a transparent culture dish, and the mesenteric vessels were observed under a microscope. Venules (20–30 μm) were selected and irradiated with light (wavelength <520 nm) to induce endothelial damage, causing thrombus formation and subsequent vessel occlusion. The time required to occlude a microvessel was recorded ([Lin et al., 2013]). A formula for dose translation based on the […] was used to calculate the appropriate dose for use in the mice ([Reagan-Shaw et al., 2008]). [Reagan-Shaw et al. (2008)] reported that the animal dose should not be extrapolated to a human equivalent dose (HED) by a simple conversion based on body weight. […] The formula for dose translation based on BSA is as follows: HED (mg/kg) = Animal dose (mg/kg) multiply by Animal Km/Human Km. Mouse Km is 3 and Human Km is 37.
as §1

[3] = test system: collagen/epinephrine-induced pulmonary thrombosis; assay: Collagen/epinephrine-induced pulmonary embolism in mice; conditions: 1.2 mg/kg i.v., relative to DMSO group
Protocol: Pulmonary embolism was induced using collagen and epinephrine in […] ICR mice according. Briefly, mice were intravenously injected with a bolus dose of DMSO (1.1 g/kg, solvent control), compound 6 (1.2 mg/kg), or aspirin (20 mg/kg, positive control). Subsequently, a mixture of collagen (0.6 mg/kg) and epinephrine (0.2 mg/kg) was administered via the tail vein. When respiration became severely weakened but the heart was still beating, 0.5 mL of Evans blue solution (1% in saline) was injected into the heart. The lungs were then excised and photographed. Mouse mortality was monitored for 24 h, and all surviving mice were euthanized immediately after the experiment. Each group consisted of six animals.
FIGURE 4 Effects of compound 6 on collagen/epinephrine-induced pulmonary thrombosis and FeCl3-induced thrombosis in mesenteric artery. Mice were intravenously administered with DMSO (solvent control), compound 6 (1.2 mg/kg), or aspirin (20 mg/kg, positive control) for 10 min (A) Mice were injected with collagen/epinephrine to induce pulmonary embolism, which was detected through staining with Evans blue (left panel). The survival rate was recorded for 24 h (right panel). […]
(A) Mice were injected with collagen/epinephrine to induce pulmonary embolism, which was detected through staining with Evans blue. (B) The survival rate was recorded for 24 h. […]

## CCCCN1C(=O)c2cccc3c(NCCNC(=O)C45CC6CC(CC(C6)C4)C5)ccc(c23)C1=O [compound 6]
[1]
  Duration of tail-bleeding: did not significantly affect
[2]; 0.3 mg/kg i.v.
  Occlusion time: 211.5 ± 15.8 s
[2]; 0.6 mg/kg i.v.
  Occlusion time: 333.5 ± 45.6 s
[2]; 1.2 mg/kg i.v.
  Occlusion time: 451.5 ± 27.4 s
[3]
  Collagen/epinephrine-induced pulmonary thrombosis (Evans blue staining of lung): could prevent
